Laboratory results from ChEMBL document CHEMBL5543059, “Discovery of anti-inflammatory natural flavonoids: Diverse scaffolds and promising leads for drug discovery” (Eur J Med Chem, 2023).
pIC50: −log10 of the molar value. In brackets after ≈: the same amount, converted by molar mass.

What was measured:
RAW264.7 [1] = assay: Anti-inflammatory activity against mouse RAW264.7 cells assessed as inhibition of LPS-induced IL-1beta mRNA expression level pretreated for 30 mins followed by LPS-induction and measured after 6 hrs by RT-PCR analysis; format: functional, cell-based
J774.A1 [2] = assay: Anti-inflammatory activity against mouse J774.A1 cells assessed as inhibition of LPS-induced IL-1beta mRNA expression level pretreated for 30 mins followed by LPS-induction and measured after 6 hrs by RT-PCR analysis; format: functional, cell-based
BV-2 [3] = assay: Anti-inflammatory activity against mouse BV-2 cells assessed as inhibition of LPS-induced IL-1beta secretion at 25 uM pretreated for 2 hrs followed stimulated with LPS for 22 hrs by ELISA analysis relative to control; format: functional; parameters: scale not given: the % may be the effect or the level left; conditions: time 24 hrs
RAW264.7 [4] = assay: Antiinflammatory activity in mouse RAW264.7 cells assessed as reduction in iNOS protein expression at 5 to 40 uM relative to control; format: functional; parameters: scale not given: the % may be the effect or the level left; conditions: dose 5-40 µM
RAW264.7 [5] = assay: Antiinflammatory activity in LPS-induced mouse RAW264.7 cells assessed as reduction in TNFalpha production pretreated for 30 mins followed by LPS induction measured after 2 hrs by ELISA method; format: functional, cell-based
RAW264.7 [6] = assay: Antiinflammatory activity in LPS-induced mouse RAW264.7 cells assessed as reduction in IL-1beta production pretreated for 30 mins followed by LPS induction measured after 2 hrs by ELISA method; format: functional, cell-based
Rattus norvegicus [7] = assay: Antiinflammatory activity in LPS-induced Sprague-Dawley rat assessed as reduction in TNFalpha production in plasma at 20 mg/kg, ip pretreated for 30 mins followed by LPS induction measured after 4 hrs by ELISA method relative to control; format: functional; parameters: scale not given: the % may be the effect or the level left; conditions: time 4.5 hrs
J774.A1 [8] = assay: Antiinflammatory activity in LPS-induced mouse J774.A1 cells assessed as reduction in TNFalpha production pretreated for 30 mins followed by LPS induction measured after 2 hrs by ELISA method; format: functional, cell-based
Rattus norvegicus [9] = assay: Antiinflammatory activity in LPS-induced Sprague-Dawley rat assessed as reduction in IL-1beta production in plasma at 20 mg/kg, ip pretreated for 30 mins followed by LPS induction measured after 4 hrs by ELISA method relative to control; format: functional; parameters: scale not given: the % may be the effect or the level left; conditions: time 4.5 hrs
J774.A1 [10] = assay: Antiinflammatory activity in LPS-induced mouse J774.A1 cells assessed as reduction in IL-1beta production pretreated for 30 mins followed by LPS induction measured after 2 hrs by ELISA method; format: functional, cell-based
RAW264.7 [11] = assay: Anti-inflammatory activity in mouse RAW264.7 cells assessed as inhibition of LPS-induced NO production by Griess reagent assay; format: functional, cell-based
Peritoneal macrophage [12] = assay: Antiinflammatory activity in mouse peritoneal macrophages assessed as reduction in LPS-induced TNFalpha level at 20 uM incubated for 4 hrs by ELISA method relative to control; format: functional; parameters: scale not given: the % may be the effect or the level left
Neutrophil = assay: Inhibition of fMLF/CB-induced human Neutrophil activation assessed as reduction in elastase release using MeO-Suc-Ala-Ala-Pro-Val-pnitroanilide as substrate incubated for 5 mins; format: functional, cell-based
RAW264.7 [13] = assay: Antiinflammatory activity in mouse RAW264.7 cells assessed as reduction in LPS-induced COX-2 expression after 24 hrs by Western blot analysis; format: functional, cell-based; conditions: RAW264.7, 24 h
RAW264.7 [14] = assay: Antiinflammatory activity in mouse RAW264.7 cells assessed as reduction in LPS-induced iNOS expression after 24 hrs by Western blot analysis; format: functional, cell-based; conditions: RAW264.7, 24 h
THP-1 = assay: Antiinflammatory activity in human THP-1 cells assessed as decrease in LPS-induced TNFalpha expression by Western blot analysis; format: functional, cell-based
B16-F10 = assay: Antiinflammatory activity in mouse B16-F10 cells assessed as decrease in LPS-induced TNFalpha expression by Western blot analysis; format: functional, cell-based
Peritoneal macrophage [15] = assay: Antiinflammatory activity against LPS-stimulated mouse peritoneal macrophage assessed as TNF-alpha level; format: functional, cell-based
BV-2 [16] = assay: Anti-inflammatory activity in mouse BV-2 cells assessed as reduction in LPS-induced NO production pre-treated with compounds for 2 hrs followed by LPS-stimulation measured for 22 hrs by Griess reagent based analysis; format: functional, cell-based
BV-2 [17] = assay: Antiinflammatory activity in mouse BV-2 cells assessed as reduction in LPS-induced NO production incubated for 24 hrs by microplate reader analysis; format: functional, cell-based; conditions: BV-2, 24 h
RAW264.7 [18] = assay: Antiinflammatory activity in LPS-activated mouse RAW264.7 cells assessed as inhibition of ROS production at 10 uM relative to control; format: functional; parameters: scale not given: the % may be the effect or the level left
BV-2 [19] = assay: Antiinflammatory activity in LPS-induced mouse BV-2 cells assessed as reduction in COX-2 protein expression by Western blot analysis; format: functional, cell-based
BV-2 [20] = assay: Antiinflammatory activity in mouse BV-2 cells assessed as reduction in LPS-induced NO production pre-treated with compound for 1 hr followed by stimulated with LPS for 18 hrs by 2,3-diaminonaphthalene reagent based fluorescence analysis; format: functional, cell-based

COc1cc(O)c(C(=O)/C=C/c2ccccc2)c(O)c1 gave a pIC50 (RAW264.7 [1]) of 4.37 and a pIC50 (J774.A1 [2]) of 4.37.

In the case of COc1ccc(-c2cc(=O)c3c(O)cc(OC)c(O)c3o2)cc1, the Activity (BV-2 [3]) was >50%.

With CC(C)=CCc1c([C@H]2Oc3cc(O)cc(O)c3C(=O)[C@@H]2O)cc2c(c1O)OC(C)(C)C=C2 the Activity (RAW264.7 [4]) was 42.8%.

COc1cc(O)c(CC=C(C)C)c2oc(=O)cc(-c3ccccc3)c12 showed a pIC50 (RAW264.7 [5]) of 4.67, a pIC50 (RAW264.7 [6]) of 4.53 and an Activity (Rattus norvegicus [7]) of 41.8%. It also gave a pIC50 (J774.A1 [8]) of 4.69, an Activity (Rattus norvegicus [9]) of 55% and a pIC50 (J774.A1 [10]) of 4.42.

CC(C)=CCC[C@@]1(C)C=Cc2c(ccc(C(=O)/C=C/c3ccc(O)c(O)c3)c2O)O1 was tested, and the pIC50 (RAW264.7 [11]) was 4.64.

Work on Oc1cc(O)c2c(c1)O[C@H](c1cc(O)c(O)c(O)c1)CC2 yielded an Activity (Peritoneal macrophage [12]) of 22.6%.

Work on Cc1c(O)cc2c(c1O)C(=O)[C@H](O)[C@@H](c1ccc(O)cc1)O2 yielded a pIC50 (Neutrophil) of 5.22.

Compound O=C1c2c(O)cc(O)cc2O[C@H](c2cc(O)c(O)c(O)c2)[C@H]1O [AMPELOPSIN] has an IC50 (RAW264.7 [13]) of 6.25 µg/mL (≈ 19.5 µM) and an IC50 (RAW264.7 [14]) of 6.25 µg/mL (≈ 19.5 µM).

COc1cc(O)cc(O)c1C(=O)/C=C/c1ccccc1 [CARDAMOMIN] gave a pIC50 (THP-1) of 5.96 and a pIC50 (B16-F10) of 6.22.

O=c1c(-c2ccc(O)cc2)coc2cc(O)cc(O)c12 [GENISTEIN] was tested, and the pIC50 (Peritoneal macrophage [15]) was 4.77.

O=C(/C=C/c1ccc(O)cc1)c1ccc(O)cc1O [ISOLIQUIRITIGENIN] showed a pIC50 (BV-2 [16]) of 5.28 and a pIC50 (BV-2 [17]) of 5.17.

C=CC(C)(C)c1cc(/C=C/C(=O)c2ccc(O)cc2)c(OC)cc1O [LICOAGROCHACONE A] gave an Activity (RAW264.7 [18]) of 80% and an IC50 (BV-2 [19]) of 0.625 µg/mL (≈ 1.85 µM).

Work on O=C1/C(=C/c2ccc(O)c(O)c2)Oc2cc(O)ccc21 [SULFURETIN] yielded a pIC50 (BV-2 [20]) of 4.50.
